From patent US11958860B2, “Crystal form of compound, and preparation method therefor and use thereof” (JIANGSU KANION PHARMACEUTICAL CO., LTD., priority 2021, dated 2024) come the findings set out here.

Assay type in all cases: physicochemical
Series [1] is described as follows: Transformation experiment between crystal forms (heating). Conditions: heating temperature 120 °C, heating time 40 min. An excerpt:
Four crystal forms, such as Form A, Form B, Form C, and Form D, are experienced for mutual transformation experiment. Experimental conditions and results are as follows: […]

A short description of series [2]: Percentage of solvent or water in crystal form. An excerpt:
Thermo gravimetric analysis (TGA for short) is an analysis technique to determine the change of mass of substances with temperature under conditions of programmed temperature control. […] Thus, such thermo gravimetric analysis is suitable for detecting the loss of crystallization solvents or crystallization water molecules in crystalline substances or the process and magnitude of sublimation and decomposition of the sample, and can also effectively distinguish whether the substances contain the crystallization solvents or the crystallization water molecules.
In the present invention, test parameters of the TGA are as follows: device model: Netzsch TG 209F3; temperature range: 30-400° C.; scanning rate: 10 k/min; purge gas: 25 ml/min; and protective gas: 15 mL/min.

A short description of series [3]: Dynamic vapor sorption (DVS) hygroscopicity test. Conditions: for water loss percentage / water absorption percentage: 25 °C. An excerpt: Dynamic vapor sorption (DVS) test/hygroscopicity test is to quickly determine the increase and loss of sample moisture caused by a flowing carrier gas with a set relative humidity (RH). The sample is placed on a high-sensitivity and high-stability digital micro-balancer in a self-suspension state, and then the sorption/desorption of water vapor is detected by determining the increase/decrease of material mass, so as to determine the hygroscopicity of the sample.
In the present invention, test parameters of the DVS are as follows: device model: SMS DVS Intrinsic; 0-95% RH; temperature: 25° C.
A dynamic vapor sorption (DVS) device is used to investigate the moisture sorption and desorption of samples at a temperature of 25° C. and a relative humidity of 0-95%, so as to determine the hygroscopic sorption properties of different crystal forms.

Series [4] is described as follows: Comparison of crystal form stability (equilibrated suspension). Conditions: conclusion from the crystal transformation results (Tables 2 and 3). As to the method:
5 mg of each sample is taken and mixed with 1 ml of a solvent at 25° C. Experimental conditions and results are as follows: […]

For `COc1cc2c(cc1OC)CN1CCc3cc4c(cc3C1C2)OCO4` (single isomer, unassigned) [Form B, S-(−)-2,3-methylenedioxy-5,8,13,13a-tetrahydro-10,11-dimethoxy-6H-dibenzo[a, g]quinolizine], the “Crystal form of product” value in series [1] was “Form A”. Besides, the “Percentage of solvent or water” value in series [2] worked out at 10.8%. In addition, the results for the water loss percentage entry in series [3] (RH 65%) and in series [3] (RH 80%) were “percentage (0.2%)” and “percentage (0.3%)”, respectively.
Consider `COc1cc2c(cc1OC)CN1CCc3cc4c(cc3C1C2)OCO4` (single isomer, unassigned) [Form C, S-(−)-2,3-methylenedioxy-5,8,13,13a-tetrahydro-10,11-dimethoxy-6H-dibenzo[a, g]quinolizine], for which the “Crystal form of product” value in series [1] is on record as “Form A”. Besides, in series [2], the “Percentage of solvent or water” value came to 4.4%. Moreover, the water absorption percentage result is “percentage (0.5%)” in series [3] (RH 65%) and “percentage (1.2%)” in series [3] (RH 80%).
On to `COc1cc2c(cc1OC)CN1CCc3cc4c(cc3C1C2)OCO4` (single isomer, unassigned) [Form D, S-(−)-2,3-methylenedioxy-5,8,13,13a-tetrahydro-10,11-dimethoxy-6H-dibenzo[a, g]quinolizine], for which the “Crystal form of product” value in series [1] is on record as “Form A”. The “Percentage of solvent or water” value in series [2] is recorded as 0.0%. For the same compound, the water absorption percentage result in series [3] (RH 65%) is “percentage (0.2%)”; in series [3] (RH 80%), “percentage (0.3%)”.
On to `COc1cc2c(cc1OC)CN1CCc3cc4c(cc3[C@@H]1C2)OCO4` [Form A, S-(−)-2,3-methylenedioxy-5,8,13,13a-tetrahydro-10,11-dimethoxy-6H-dibenzo[a, g]quinolizine], for which, in series [4], the “relative stability of crystal forms” value is given as “most stable crystal form”. Besides, the “Crystal form of product” value in series [1] was “Form A”. Further, the “Percentage of solvent or water” value in series [2] is reported as 0.0%. Also, the water absorption percentage entry is “percentage (0.1%)” in series [3] (RH 65%) and “percentage (0.2%)” in series [3] (RH 80%). The “change in hygroscopicity and weight (DVS)” value in series [3] (relative humidity of 0-95%, FIG. 5) was “approximately 0.6%”.
